How the values were obtained:
Assay type in all cases: in vivo
[1] = tested on: relapsing-remitting EAE (RR-EAE); assay: Relapsing-remitting EAE (RR-EAE) driven by PLP in SJL/J mice; conditions: 0.2 mg/treatment on days 6, 9, 12, by MN or soluble i.p. injection; for RR-EAE mean score: measured at the last treatment day
Experimental: (§1) We confirmed the activity and dose-dependence of traditional GA regimens using daily GA injections (i.p.) at 0.2 or 2.0 mg/day beginning at disease onset in EAE (arrows; N=10/group). As discussed above, EAE is a progressive mouse model of MOG-driven inflammation that results in severe paralysis over several weeks; higher clinical scores indicate more severe disease (FIG. 3, panel A). Next we formulated GA-MNs (with sucrose stabilizer) such that a single MN patch contained 0.2 mg—confirmed by dissolution and fluorimetry—to match the ineffective injected GA dose in FIG. 3 panel A. The actual amount of GA delivered from MNs is likely less than the total GA loading due to accumulation on the backing. Mice were then treated at the ear on days 5, 10, 15, and 20 with GA-MNs or control MNs lacking GA (“Sucrose MN”). […] To analyze this approach in another inflammation model driven by a different myelin peptide—PLP, SJL/J mice were induced with relapsing-remitting EAE (RR-EAE) then treated on days 6, 9, and 12 (N=15/group) using equivalent doses 0.2 mg/treatment (tx) group of GA by MN or soluble i.p. injection.

[2] = tested on: lymphocytes, TREG, CD45+CD4+ T cells; assay: Flow cytometry of cervical LNs, spleen and spinal cord in RR-EAE mice; conditions: Day 10 and Day 12, relative to untreated mice with RR-EAE
Experimental: To analyze this, we analyzed whether GA-MN could increase TREG, and, that because of the decreased clinical scores in FIG. 3, these effects might be evident in cervical LNs. Using analogous regimens to FIG. 3 panel D (RR-EAE), mice were euthanized at Day 10 and Day 12, then cervical LNs and spleen were assessed by flow cytometry. Relative to untreated mice with RR-EAE, GA-MN increased both the number of lymphocytes (FIG. 4 panel A) and the number of TREG (FIG. 4 panel B); these effects were not observed in mice treated with soluble GA. […] At day 12, we assessed the number of lymphocytes and activated CD4^+ T cells, as indicated by staining for CD45^+/CD4^+ cells. Though the group sizes (N=5) were insufficient for statistical significance, we observed a trend that GA-MN decreased the number of lymphocytes the spinal cord (FIG. 5 panel A), as well as the number of infiltrating CD45^+CD4^+ cells (FIG. 5 panels B and C). The data in these Examples indicate GA-MNs deliver GA through the skin of mice at doses that provide efficacy in EAE and RR-EAE.

[3] = tested on: Experimental Autoimmune Encephalomyelitis (EAE); assay: Experimental Autoimmune Encephalomyelitis (EAE), progressive mouse model of MOG-driven inflammation
Experimental: as §1

glatiramer acetate [GA]
RR-EAE disease progression ([1]; listed as injectable GA): does not | RR-EAE disease progression ([1]; listed as soluble GA): no effect | RR-EAE mean score ([1]; listed as injectable GA): does not | RR-EAE mean score ([1]; listed as soluble GA): no effect | Number of TREG in cervical LNs [2]: not observed | Number of lymphocytes in cervical LNs [2]: not observed | EAE clinical score, effect of injected GA ([3]; daily GA injections i.p. 0.2 mg/day beginning at disease onset): ineffective | EAE clinical score, dose dependence of daily GA dosing ([3]; daily GA injections i.p. at 0.2 or 2.0 mg/day beginning at disease onset): dose-dependent effects

From patent publication US20210000907A1, “MICRONEEDLE-MEDIATED DELIVERY OF TOLEROGENIC IMMUNOTHERAPEUTICS” (University of Maryland, College Park, priority 2017, published 2021)
